Source: patent publication US20260325533A1, “CDK INHIBITOR COMPOUNDS” (ALEKSIA THERAPEUTICS, INC., priority 2023, published 2026)
Like-named read-outs stand apart in the source and are kept apart here.

Legend:
Type in all cases: biochemical
CDK4/CCND3 = CDK4/CCND3 (Homo sapiens, UniProt P11802); test: CDK4 homogeneous time-resolved fluorescence (HTRF) kinase assay; settings: CDK4/CCND
Summary of the method: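 IC50 values were derived from 11-point half-log dilutions, usually starting at 10 μM. Compound was first held for 20 min at 23 °C with 1.5 nM CDK4/CCND3. 1 mM ATP and 50 nM ULight-eIF4E-BP1 (Thr37/46) substrate were then added for 60 min, and the TR-FRET 665 nm signal was measured after EDTA stop and Eu-anti-phospho-4E-BP1 detection.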

CDK2/CCNE1 = CDK2/CCNE1 (Homo sapiens, UniProt P24941); test: CDK2 homogeneous time-resolved fluorescence (HTRF) kinase assay; settings: CDK2/CCNE
Summary of the method: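 IC50 derived from 11-point, half-log dilutions (usually top 10 μM) of compound, 1% DMSO. Kinase (3 nM CDK2/CCNE1) was preincubated with compound 20 min, then phosphorylated 50 nM ULight-4E-BP1 peptide at 1 mM ATP for 60 min, 23 °C. Europium-antibody TR-FRET read after EDTA stop.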

CDK6/CCND1 = CDK6/CCND1 (Homo sapiens, UniProt Q00534); test: CDK6 homogeneous time-resolved fluorescence (HTRF) kinase assay; settings: CDK6/CCND
Chain of CDK6/CCND1 (Q00534 whole entry): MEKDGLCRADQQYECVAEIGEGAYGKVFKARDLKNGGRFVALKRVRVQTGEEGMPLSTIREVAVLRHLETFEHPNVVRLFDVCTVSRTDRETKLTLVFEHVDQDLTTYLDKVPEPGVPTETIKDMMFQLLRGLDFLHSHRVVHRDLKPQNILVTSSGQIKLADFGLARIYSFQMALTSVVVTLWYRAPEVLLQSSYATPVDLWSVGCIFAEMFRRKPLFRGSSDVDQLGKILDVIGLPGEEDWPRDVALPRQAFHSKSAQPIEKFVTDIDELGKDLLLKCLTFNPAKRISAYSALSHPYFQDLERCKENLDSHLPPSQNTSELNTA
Chain of CDK6/CCND1 (P24385 whole entry partner): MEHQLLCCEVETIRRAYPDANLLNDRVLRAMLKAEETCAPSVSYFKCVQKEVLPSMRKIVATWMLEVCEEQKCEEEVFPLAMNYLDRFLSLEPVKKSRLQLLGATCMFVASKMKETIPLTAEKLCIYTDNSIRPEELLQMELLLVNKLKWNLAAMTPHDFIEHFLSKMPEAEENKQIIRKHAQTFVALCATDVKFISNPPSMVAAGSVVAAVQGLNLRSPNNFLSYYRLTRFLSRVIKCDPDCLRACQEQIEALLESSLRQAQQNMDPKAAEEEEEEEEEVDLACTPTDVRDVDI
Summary of the method: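 Recombinant CDK6/CCND1 (1 nM final) was preincubated with compound for 20 min at 23 °C in HEPES buffer with MgCl2, EGTA, DTT and Tween 20. Kinase reaction then ran 60 min at 23 °C with 1 mM ATP and 50 nM ULight-4E-BP1 (Thr37/46) peptide, and was stopped with EDTA.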

CDK1/CCNB1 = CDK1/CCNB1 (Homo sapiens, UniProt P06493); test: CDK1 homogeneous time-resolved fluorescence (HTRF) kinase assay; settings: CDK1/CCNB
Chain of CDK1/CCNB1 (P06493 whole entry): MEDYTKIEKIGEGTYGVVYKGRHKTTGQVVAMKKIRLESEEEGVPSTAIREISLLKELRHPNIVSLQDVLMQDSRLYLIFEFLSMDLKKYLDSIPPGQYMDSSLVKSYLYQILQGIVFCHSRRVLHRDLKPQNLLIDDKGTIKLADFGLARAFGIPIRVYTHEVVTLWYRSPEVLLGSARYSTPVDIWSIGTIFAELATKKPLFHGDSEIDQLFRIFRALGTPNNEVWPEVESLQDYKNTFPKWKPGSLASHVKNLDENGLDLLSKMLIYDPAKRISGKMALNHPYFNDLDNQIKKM
Chain of CDK1/CCNB1 (P14635 whole entry partner): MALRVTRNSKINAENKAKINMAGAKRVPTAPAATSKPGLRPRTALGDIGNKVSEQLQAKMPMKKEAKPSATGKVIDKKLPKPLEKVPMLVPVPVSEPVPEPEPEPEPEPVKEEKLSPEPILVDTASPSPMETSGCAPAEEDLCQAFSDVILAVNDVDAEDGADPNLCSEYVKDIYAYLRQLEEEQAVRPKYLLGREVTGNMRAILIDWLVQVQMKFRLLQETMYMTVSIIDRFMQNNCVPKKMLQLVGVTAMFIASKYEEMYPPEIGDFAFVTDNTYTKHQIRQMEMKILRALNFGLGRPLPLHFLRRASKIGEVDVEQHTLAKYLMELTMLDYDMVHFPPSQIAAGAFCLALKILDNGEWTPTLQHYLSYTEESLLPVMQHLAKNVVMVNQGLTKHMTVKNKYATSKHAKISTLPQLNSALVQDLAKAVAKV
Summary of the method: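 High-ATP (1 mM) HTRF assay with 0.5 nM CDK1/cyclin B1 and 50 nM ULight-4E-BP1 (Thr37/46) substrate, 60 min at 23 °C after 20-min compound preincubation. IC50 values come from dose-response curves.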

[1] = >250 nM marked x, read-out: CDK4/CCND IC50 >250 nM
[2] = 25-250 nM marked x, read-out: CDK2/CCNE IC50 25-250 nM
[3] = >250 nM marked x, read-out: CDK6/CCND IC50 >250 nM
[4] = >250 nM marked x, read-out: CDK1/CCNB IC50 >250 nM
[5] = <25 nM, read-out: CDK2/CCNE IC50 <25 nM
[6] = 25-250 nM marked x, read-out: CDK1/CCNB IC50 25-250 nM
[7] = x = IC50 25-250 nM, read-out: CDK4/CCND IC50 (25-250 nM)
[8] = x = IC50 <25 nM, read-out: CDK2/CCNE IC50 (<25 nM)
[9] = x = IC50 >250 nM, read-out: CDK6/CCND IC50 (>250 nM column)
[10] = x = IC50 25-250 nM, read-out: CDK1/CCNB IC50 (25-250 nM)

Chain of CDK4/CCND3 (P11802 whole entry): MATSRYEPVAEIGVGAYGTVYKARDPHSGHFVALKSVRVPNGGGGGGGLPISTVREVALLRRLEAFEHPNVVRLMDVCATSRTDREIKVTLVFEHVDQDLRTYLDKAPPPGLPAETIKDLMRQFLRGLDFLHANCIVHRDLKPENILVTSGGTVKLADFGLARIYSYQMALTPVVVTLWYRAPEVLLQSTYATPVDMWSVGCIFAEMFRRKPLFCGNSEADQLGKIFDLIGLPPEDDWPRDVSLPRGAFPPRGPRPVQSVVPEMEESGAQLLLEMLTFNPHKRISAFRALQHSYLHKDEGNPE
Chain of CDK4/CCND3 (P30281 whole entry partner): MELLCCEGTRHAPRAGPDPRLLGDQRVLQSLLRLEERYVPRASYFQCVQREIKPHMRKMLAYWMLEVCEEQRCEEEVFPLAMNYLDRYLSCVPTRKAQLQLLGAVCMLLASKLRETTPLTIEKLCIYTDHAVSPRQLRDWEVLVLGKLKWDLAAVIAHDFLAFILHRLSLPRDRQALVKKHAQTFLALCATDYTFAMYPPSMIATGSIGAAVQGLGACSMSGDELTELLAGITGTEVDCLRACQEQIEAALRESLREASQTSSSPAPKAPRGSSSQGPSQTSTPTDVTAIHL

Row | Structure (SMILES) | IC50 (CDK4/CCND3; [1]) | IC50 (CDK6/CCND1; [3]) | IC50 (CDK1/CCNB1; [4]) | IC50 (CDK2/CCNE1; [5]) | other results
1 | CCC1(CC)C(=O)Nc2cc(C#Cc3nccc4cnc(Nc5ccc(S(=N)(=O)CC)cc5OC)cc34)ccc21 (single isomer, unassigned) [Ex 308, 3,3-diethyl-6-((7-((4-(ethylsulfonimidoyl)-2-methoxyphenyl)amino)-2,6-naphthyridin-1-yl)ethynyl)indolin-2-one] | > 0.25 µM | > 0.25 µM | > 0.25 µM | – | IC50 (CDK2/CCNE1; [2]): 0.025 to 0.25 µM
2 | CCS(=N)(=O)c1ccc(Nc2cc3c(C#Cc4ccc5c(c4)NC(=O)C54CCC4)nccc3cn2)c(OC)c1 (single isomer, unassigned) [Ex 310, 6'-((7-((4-(ethylsulfonimidoyl)-2-methoxyphenyl)amino)-2,6-naphthyridin-1-yl)ethynyl)spiro[cyclobutane-1,3'-indolin]-2'-one] | > 0.25 µM | > 0.25 µM | > 0.25 µM | < 0.025 µM | –
3 | COc1cc(S(C)(=N)=O)ccc1Nc1cc2c(C#Cc3ccc4c(c3)NC(=O)C43CCC3)nccc2cn1 (single isomer, unassigned) [Ex 313, 6'-((7-((2-methoxy-4-(S-methylsulfonimidoyl)phenyl)amino)-2,6-naphthyridin-1-yl)ethynyl)spiro[cyclobutane-1,3'-indolin]-2'-one] | > 0.25 µM | > 0.25 µM | > 0.25 µM | – | IC50 (CDK2/CCNE1; [2]): 0.025 to 0.25 µM
4 | CCC1(CC)C(=O)Nc2cc(C#Cc3nccc4cnc(Nc5ccc(S(=N)(=O)C6COC6)cc5C)cc34)ccc21 (single isomer, unassigned) [Ex 316, 3,3-diethyl-6-((7-((2-methyl-4-(oxetane-3-sulfonimidoyl)phenyl)amino)-2,6-naphthyridin-1-yl)ethynyl)indolin-2-one] | > 0.25 µM | > 0.25 µM | > 0.25 µM | < 0.025 µM | –
5 | CCC1(CC)C(=O)Nc2cc(C#Cc3nccc4cnc(Nc5ccc(S(=N)(=O)C6COC6)cc5OC)cc34)ccc21 (single isomer, unassigned) [Ex 317, 3,3-diethyl-6-((7-((2-methoxy-4-(oxetane-3-sulfonimidoyl)phenyl)amino)-2,6-naphthyridin-1-yl)ethynyl)indolin-2-one] | > 0.25 µM | > 0.25 µM | > 0.25 µM | – | IC50 (CDK2/CCNE1; [2]): 0.025 to 0.25 µM
6 | CCC1(CC)C(=O)Nc2cc(C#Cc3nccc4cnc(Nc5ccc(S(C)(=N)=O)cc5OC)cc34)ccc21 (single isomer, unassigned) [Ex 319, 3,3-diethyl-6-((7-((2-methoxy-4-(S-methylsulfonimidoyl)phenyl)amino)-2,6-naphthyridin-1-yl)ethynyl)indolin-2-one] | > 0.25 µM | > 0.25 µM | > 0.25 µM | – | IC50 (CDK2/CCNE1; [2]): 0.025 to 0.25 µM
7 | COc1cc(S(=N)(=O)C2COC2)ccc1Nc1cc2c(C#Cc3ccc4c(c3)NC(=O)C43CC3)nccc2cn1 (single isomer, unassigned) [Ex 323, 6'-((7-((2-methoxy-4-(oxetane-3-sulfonimidoyl)phenyl)amino)-2,6-naphthyridin-1-yl)ethynyl)spiro[cyclopropane-1,3'-indolin]-2'-one] | > 0.25 µM | > 0.25 µM | > 0.25 µM | < 0.025 µM | –
8 | Cc1cc(S(C)(=N)=O)ccc1Nc1cc2c(C#Cc3ccc4c(c3)NC(=O)C43CC3)nccc2cn1 (single isomer, unassigned) [Ex 326, 6'-((7-((2-methyl-4-(S-methylsulfonimidoyl)phenyl)amino)-2,6-naphthyridin-1-yl)ethynyl)spiro[cyclopropane-1,3'-indolin]-2'-one] | – | > 0.25 µM | – | < 0.025 µM | IC50 (CDK4/CCND3; 25-250 nM marked x, read-out: CDK4/CCND IC50 25-250 nM): 0.025 to 0.25 µM; IC50 (CDK1/CCNB1; [6]): 0.025 to 0.25 µM
9 | Cc1cc(S(C)(=N)=O)ccc1Nc1cc2c(C#Cc3ccc4c(c3)NC(=O)C43CCC3)nccc2cn1 (single isomer, unassigned) [Ex 332, 6'-((7-((2-methyl-4-(S-methylsulfonimidoyl)phenyl)amino)-2,6-naphthyridin-1-yl)ethynyl)spiro[cyclobutane-1,3'-indolin]-2'-one] | > 0.25 µM | > 0.25 µM | > 0.25 µM | < 0.025 µM | –
10 | COc1cc(S(=N)(=O)C(C)C)ccc1Nc1cc2c(C#Cc3ccc4c(c3)NC(=O)C43CC3)nccc2cn1 (single isomer, unassigned) [Ex 334, 6'-((7-((2-methoxy-4-(propan-2-ylsulfonimidoyl)phenyl)amino)-2,6-naphthyridin-1-yl)ethynyl)spiro[cyclopropane-1,3'-indolin]-2'-one] | > 0.25 µM | > 0.25 µM | > 0.25 µM | < 0.025 µM | –
11 | CCC1(CC)C(=O)Nc2cc(C#Cc3nccc4cnc(Nc5ccc(S(C)(=N)=O)cc5C)cc34)ccc21 (single isomer, unassigned) [Ex 336, 3,3-diethyl-6-((7-((2-methyl-4-(S-methylsulfonimidoyl)phenyl)amino)-2,6-naphthyridin-1-yl)ethynyl)indolin-2-one] | > 0.25 µM | > 0.25 µM | – | < 0.025 µM | IC50 (CDK1/CCNB1; [6]): 0.025 to 0.25 µM
12 | CCC1(CC)C(=O)Nc2cc(C#Cc3nccc4cnc(Nc5ccc(S(=N)(=O)C6CC6)cc5)cc34)ccc21 (single isomer, unassigned) [Ex 339, 6-((7-((4-(cyclopropanesulfonimidoyl)phenyl)amino)-2,6-naphthyridin-1-yl)ethynyl)-3,3-diethylindolin-2-one] | > 0.25 µM | > 0.25 µM | – | < 0.025 µM | IC50 (CDK1/CCNB1; [6]): 0.025 to 0.25 µM
13 | CCC1(CC)C(=O)Nc2cc(C#Cc3nccc4cnc(Nc5ccc(S(=N)(=O)C(C)C)cc5OC)cc34)ccc21 (single isomer, unassigned) [Ex 340, 3,3-diethyl-6-((7-((2-methoxy-4-(propan-2-ylsulfonimidoyl)phenyl)amino)-2,6-naphthyridin-1-yl)ethynyl)indolin-2-one] | > 0.25 µM | > 0.25 µM | > 0.25 µM | < 0.025 µM | –
14 | N=S(=O)(c1ccc(Nc2cc3c(C#Cc4ccc5c(c4)NC(=O)C54CCC4)nccc3cn2)cc1)C1CC1 (single isomer, unassigned) [Ex 344, 6'-((7-((4-(cyclopropanesulfonimidoyl)phenyl)amino)-2,6-naphthyridin-1-yl)ethynyl)spiro[cyclobutane-1,3'-indolin]-2'-one] | – | – | – | – | IC50 (CDK4/CCND3; [7]): 0.025 to 0.25 µM; IC50 (CDK2/CCNE1; [8]): < 0.025 µM; IC50 (CDK6/CCND1; [9]): > 0.25 µM; IC50 (CDK1/CCNB1; [10]): 0.025 to 0.25 µM
15 | COc1cc(S(=N)(=O)C(C)C)ccc1Nc1cc2c(C#Cc3ccc4c(c3)NC(=O)C43CCC3)nccc2cn1 (single isomer, unassigned) [Ex 345, 6'-((7-((2-methoxy-4-(propan-2-ylsulfonimidoyl)phenyl)amino)-2,6-naphthyridin-1-yl)ethynyl)spiro[cyclobutane-1,3'-indolin]-2'-one] | – | – | – | – | IC50 (CDK4/CCND3; x = IC50 >250 nM, read-out: CDK4/CCND IC50 (>250 nM column)): > 0.25 µM; IC50 (CDK2/CCNE1; [8]): < 0.025 µM; IC50 (CDK6/CCND1; [9]): > 0.25 µM; IC50 (CDK1/CCNB1; x = IC50 >250 nM, read-out: CDK1/CCNB IC50 (>250 nM column)): > 0.25 µM
16 | CC(C)S(=N)(=O)c1ccc(Nc2cc3c(C#Cc4cc5c(cc4N)C(C)(C)C(=O)N5)nccc3cn2)cc1 (single isomer, unassigned) [Ex 349, 5-amino-3,3-dimethyl-6-((7-((4-(propan-2-ylsulfonimidoyl)phenyl)amino)-2,6-naphthyridin-1-yl)ethynyl)indolin-2-one] | – | – | – | – | IC50 (CDK4/CCND3; [7]): 0.025 to 0.25 µM; IC50 (CDK2/CCNE1; [8]): < 0.025 µM; IC50 (CDK6/CCND1; [9]): > 0.25 µM; IC50 (CDK1/CCNB1; [10]): 0.025 to 0.25 µM
